These results are taken from ChEMBL document CHEMBL1201862, “PubChem BioAssay data set” (2004).

One test deals with T1, Leucine aminopeptidase (Plasmodium falciparum 3D7, UniProt Q8IL11).
T1 sequence (Q8IL11 whole entry): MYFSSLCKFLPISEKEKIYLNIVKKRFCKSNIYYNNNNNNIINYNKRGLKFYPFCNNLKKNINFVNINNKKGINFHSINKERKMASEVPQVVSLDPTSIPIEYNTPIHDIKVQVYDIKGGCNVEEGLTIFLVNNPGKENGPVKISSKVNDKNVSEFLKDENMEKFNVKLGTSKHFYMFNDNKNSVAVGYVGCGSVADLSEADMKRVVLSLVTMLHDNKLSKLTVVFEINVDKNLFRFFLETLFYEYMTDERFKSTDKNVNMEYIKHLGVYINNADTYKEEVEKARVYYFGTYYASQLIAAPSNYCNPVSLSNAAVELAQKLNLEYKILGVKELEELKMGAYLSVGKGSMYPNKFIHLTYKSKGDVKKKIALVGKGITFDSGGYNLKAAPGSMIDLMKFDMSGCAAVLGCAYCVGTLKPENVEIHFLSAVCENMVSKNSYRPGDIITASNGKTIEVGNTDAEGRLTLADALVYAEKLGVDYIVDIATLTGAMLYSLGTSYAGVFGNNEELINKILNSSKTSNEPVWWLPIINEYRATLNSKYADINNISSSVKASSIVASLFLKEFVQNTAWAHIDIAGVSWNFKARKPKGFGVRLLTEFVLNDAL
The experiment in a line: P. falciparum M17LAP inhibitors, primary screen, biochemical, fluorogenic H-Leu-NHMec substrate, 1536-well (AID 1619). The class given is functional.

For the next test, the target named is Aspartyl aminopeptidase (Plasmodium falciparum 3D7, UniProt Q8I2J3). The experiment in a line: Counterscreen for inhibitors of M1 and M17 aminopeptidases: QFRET-based biochemical high throughput dose response assay for inhibitors of the Plasmodium falciparum M18 Aspartyl Aminopeptidase (PFM18AAP). [Related PubChem assays: 1619 (Screening assay (M17LAP inhibitors).), 1445 (Screening assay (M1AAP inhibitors).)]. For orientation: The purpose of a counterscreen is to sort out artefacts and off-target activity.

Another test addresses Procathepsin L (Homo sapiens, UniProt P07711). The experiment in a line: cathepsin L inhibitors, dose response, counter-screen for M1/M17 aminopeptidase inhibitor project, biochemical, QFRET, 1536-well (AID 2214).
The next test concerns the target Galanin receptor type 2 (Homo sapiens, UniProt O43603). The experiment in a line: Dose Response cell-based high-throughput screening assay to identify antagonists of galanin receptor 2 (GALR2). [Related pubchem assays: 828, 866 ]. The class given is functional.
Test [1] concerns the target Aryl hydrocarbon receptor (Homo sapiens, UniProt P35869). As to the kind of experiment: Luminescence-based cell-based high throughput dose response assay for activators of the Aryl Hydrocarbon Receptor (AHR). [Related pubchem assays: 2796 (Primary screen (AHR activators in singlicate)), 2845 (Confirmation screen (AHR activators in triplicate)), 434939 (Counterscreen (PXR activators in triplicate)), 2804 (Summary (AHR activators))]. It is filed as ADME.

Test [2] has as its target Voltage-gated inwardly rectifying potassium channel KCNH2 (Homo sapiens, UniProt Q12809). The experiment in a line: hERG protection from proarrhythmic block, potency, dose response, cell-based, thallium flux (AID 2121). It is filed as ADME. For orientation: The hERG channel carries a current that helps repolarise heart muscle cells.
The target of test [3] is T2, Long-chain-fatty-acid--AMP ligase FadD28 (Mycobacterium tuberculosis, UniProt P9WQ59).
T2 sequence (P9WQ59 whole entry): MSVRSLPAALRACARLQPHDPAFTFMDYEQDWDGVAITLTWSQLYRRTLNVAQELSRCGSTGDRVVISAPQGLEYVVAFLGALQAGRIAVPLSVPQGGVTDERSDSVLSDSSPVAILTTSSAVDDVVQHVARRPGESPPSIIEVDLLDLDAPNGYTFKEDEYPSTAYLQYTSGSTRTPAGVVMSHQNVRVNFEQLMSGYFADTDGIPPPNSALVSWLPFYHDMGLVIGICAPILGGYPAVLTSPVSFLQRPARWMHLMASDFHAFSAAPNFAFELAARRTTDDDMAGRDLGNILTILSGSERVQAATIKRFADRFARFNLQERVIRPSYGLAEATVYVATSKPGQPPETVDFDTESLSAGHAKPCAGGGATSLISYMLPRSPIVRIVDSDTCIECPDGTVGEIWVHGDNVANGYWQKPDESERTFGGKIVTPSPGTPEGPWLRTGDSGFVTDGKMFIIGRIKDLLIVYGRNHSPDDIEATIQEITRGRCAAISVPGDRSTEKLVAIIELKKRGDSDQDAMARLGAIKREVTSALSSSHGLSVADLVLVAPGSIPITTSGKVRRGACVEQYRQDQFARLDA
As to the kind of experiment: Fluorescence polarization aasay to screen for inhibitors that compete for the binding of FadD28 to a bisubstrate Measured in Biochemical System Using Plate Reader - 2147-01_Inhibitor_Dose_CherryPick_Activity. It is filed as functional, Mycobacterium tuberculosis H37Rv. In general terms: Fluorescence polarisation rises when a labelled molecule tumbles more slowly, as on binding a larger partner.

SMILES strings stand for the structures. Activity calls are given as the source filed them.

Sequence of Galanin receptor type 2 (O43603 whole entry): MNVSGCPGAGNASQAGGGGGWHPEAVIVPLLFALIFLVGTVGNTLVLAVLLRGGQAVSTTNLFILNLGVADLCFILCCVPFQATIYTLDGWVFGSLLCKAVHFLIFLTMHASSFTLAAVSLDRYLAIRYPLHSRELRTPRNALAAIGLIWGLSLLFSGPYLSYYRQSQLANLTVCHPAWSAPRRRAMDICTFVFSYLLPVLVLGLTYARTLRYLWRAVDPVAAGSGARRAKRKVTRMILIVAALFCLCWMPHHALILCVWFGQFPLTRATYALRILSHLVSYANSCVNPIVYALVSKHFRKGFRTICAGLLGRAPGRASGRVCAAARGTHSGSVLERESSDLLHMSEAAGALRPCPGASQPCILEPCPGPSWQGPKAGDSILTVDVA
Sequence of Aspartyl aminopeptidase (Q8I2J3 whole entry): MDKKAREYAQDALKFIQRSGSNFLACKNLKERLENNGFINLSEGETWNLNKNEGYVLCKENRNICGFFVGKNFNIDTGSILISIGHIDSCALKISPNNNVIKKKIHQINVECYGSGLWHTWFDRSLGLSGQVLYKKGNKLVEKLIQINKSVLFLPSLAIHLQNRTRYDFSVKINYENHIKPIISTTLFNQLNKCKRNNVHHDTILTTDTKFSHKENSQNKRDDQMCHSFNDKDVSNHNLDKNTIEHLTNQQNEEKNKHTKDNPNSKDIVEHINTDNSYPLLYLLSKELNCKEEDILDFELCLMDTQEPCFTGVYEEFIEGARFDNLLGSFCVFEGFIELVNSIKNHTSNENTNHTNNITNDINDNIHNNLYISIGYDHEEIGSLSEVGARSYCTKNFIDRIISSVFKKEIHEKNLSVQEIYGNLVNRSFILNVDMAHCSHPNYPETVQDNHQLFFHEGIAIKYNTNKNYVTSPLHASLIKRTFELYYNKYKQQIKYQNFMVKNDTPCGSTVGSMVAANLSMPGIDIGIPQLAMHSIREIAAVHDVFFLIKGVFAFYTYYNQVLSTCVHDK
Sequence of Aryl hydrocarbon receptor (P35869 whole entry): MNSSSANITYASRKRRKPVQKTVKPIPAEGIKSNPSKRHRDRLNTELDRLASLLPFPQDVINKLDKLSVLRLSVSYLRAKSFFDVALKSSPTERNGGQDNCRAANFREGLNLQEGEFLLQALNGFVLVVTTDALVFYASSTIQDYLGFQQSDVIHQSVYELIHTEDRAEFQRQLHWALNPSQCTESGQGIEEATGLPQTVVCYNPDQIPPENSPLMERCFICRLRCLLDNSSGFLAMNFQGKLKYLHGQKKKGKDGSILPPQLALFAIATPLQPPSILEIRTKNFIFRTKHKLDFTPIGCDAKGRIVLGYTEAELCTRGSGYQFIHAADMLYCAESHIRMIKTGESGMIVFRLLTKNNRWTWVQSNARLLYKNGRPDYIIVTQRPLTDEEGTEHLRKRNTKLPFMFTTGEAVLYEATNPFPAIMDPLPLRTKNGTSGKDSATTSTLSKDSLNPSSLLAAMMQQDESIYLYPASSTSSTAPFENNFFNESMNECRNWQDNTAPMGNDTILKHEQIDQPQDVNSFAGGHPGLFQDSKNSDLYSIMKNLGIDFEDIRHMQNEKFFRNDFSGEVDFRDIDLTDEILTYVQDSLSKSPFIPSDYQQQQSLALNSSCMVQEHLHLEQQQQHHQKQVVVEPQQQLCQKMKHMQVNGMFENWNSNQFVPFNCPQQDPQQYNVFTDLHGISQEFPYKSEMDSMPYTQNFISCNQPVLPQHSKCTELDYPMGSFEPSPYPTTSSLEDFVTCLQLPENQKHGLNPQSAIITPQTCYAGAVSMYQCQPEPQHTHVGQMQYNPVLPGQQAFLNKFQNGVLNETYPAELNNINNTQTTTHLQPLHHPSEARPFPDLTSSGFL
Sequence of Voltage-gated inwardly rectifying potassium channel KCNH2 (Q12809 whole entry): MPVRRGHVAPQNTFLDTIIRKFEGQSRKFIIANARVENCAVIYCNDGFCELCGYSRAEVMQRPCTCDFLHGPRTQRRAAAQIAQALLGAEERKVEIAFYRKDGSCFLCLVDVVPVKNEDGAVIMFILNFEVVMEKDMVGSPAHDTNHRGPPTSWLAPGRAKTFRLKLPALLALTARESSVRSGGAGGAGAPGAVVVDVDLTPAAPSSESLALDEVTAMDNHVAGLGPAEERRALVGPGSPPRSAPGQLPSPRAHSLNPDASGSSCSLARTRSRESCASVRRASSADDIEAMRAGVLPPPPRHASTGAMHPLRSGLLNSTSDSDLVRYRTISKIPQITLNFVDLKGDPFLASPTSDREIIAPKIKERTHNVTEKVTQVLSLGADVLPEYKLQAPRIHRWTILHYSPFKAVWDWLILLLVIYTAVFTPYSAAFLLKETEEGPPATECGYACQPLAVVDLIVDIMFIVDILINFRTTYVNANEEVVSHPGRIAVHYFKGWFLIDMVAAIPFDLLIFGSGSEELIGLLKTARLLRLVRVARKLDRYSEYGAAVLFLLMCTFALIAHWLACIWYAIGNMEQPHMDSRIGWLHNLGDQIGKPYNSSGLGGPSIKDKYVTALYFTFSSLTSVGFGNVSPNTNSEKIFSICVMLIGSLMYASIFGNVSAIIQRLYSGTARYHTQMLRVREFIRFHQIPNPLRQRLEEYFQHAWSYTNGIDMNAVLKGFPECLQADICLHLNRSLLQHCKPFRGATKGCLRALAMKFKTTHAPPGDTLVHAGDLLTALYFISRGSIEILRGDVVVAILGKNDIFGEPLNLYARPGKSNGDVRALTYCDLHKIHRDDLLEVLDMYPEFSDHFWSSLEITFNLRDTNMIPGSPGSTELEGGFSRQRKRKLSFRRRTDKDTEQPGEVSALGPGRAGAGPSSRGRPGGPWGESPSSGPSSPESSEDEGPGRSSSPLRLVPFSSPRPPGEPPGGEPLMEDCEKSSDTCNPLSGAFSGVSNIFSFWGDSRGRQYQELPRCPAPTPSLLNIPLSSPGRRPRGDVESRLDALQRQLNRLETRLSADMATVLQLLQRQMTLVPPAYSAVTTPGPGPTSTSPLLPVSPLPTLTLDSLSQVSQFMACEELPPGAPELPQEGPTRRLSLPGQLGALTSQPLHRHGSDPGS
Sequence of Procathepsin L (P07711 whole entry): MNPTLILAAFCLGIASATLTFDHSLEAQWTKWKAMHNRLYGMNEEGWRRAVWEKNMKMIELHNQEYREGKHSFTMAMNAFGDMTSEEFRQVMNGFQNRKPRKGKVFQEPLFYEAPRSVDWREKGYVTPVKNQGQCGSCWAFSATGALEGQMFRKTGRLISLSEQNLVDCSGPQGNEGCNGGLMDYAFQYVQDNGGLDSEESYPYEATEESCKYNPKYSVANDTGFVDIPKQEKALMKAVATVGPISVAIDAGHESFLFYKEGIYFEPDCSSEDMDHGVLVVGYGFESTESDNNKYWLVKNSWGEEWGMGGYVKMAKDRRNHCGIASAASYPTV

As to `O=C(O)Cc1ccc(NC(=O)Nc2ccc(Br)cc2)cc1`, the half-maximal inhibitory concentration (IC50) – broadly, the midpoint of a concentration-inhibition curve – is < 1 µM (active) at Leucine aminopeptidase, > 73.5 µM (not active) against Aspartyl aminopeptidase and > 59.6 µM (not active) against Procathepsin L.

In the case of `Cc1nnc(SCC(=O)Nc2cccc(S(=O)(=O)N(C)c3ccccc3)c2)s1`, the IC50 against Galanin receptor type 2 is reported as > 42 µM (not active).

`COc1ccc(/C=N/NC(=O)c2cccc(NC(=O)c3ccc(F)cc3)c2)c(C(=O)O)c1OC`: in test [1], the EC50 – broadly, the midpoint of the concentration-response curve – was 5.48 µM (active).

For the molecule `Cc1nn(-c2cccc3ccccc23)c(O)c1/C=N/c1sc2c(c1C#N)CCC2`, the EC50 in test [2] is 6.13 µM (active). Also, the AC50 (usually the concentration giving half of the maximal activity seen) in test [3] is 91.8 µM (active).
